According to paper PMC8574098 (Journal of natural products, 2021):

Target: matrix metalloproteinase-3 (MMP-3) (Homo sapiens, UniProt P08254)
Test: MMP-3 enzyme inhibition assay
Type: biochemical

Sequence of matrix metalloproteinase-3 (MMP-3) (P08254 100-477): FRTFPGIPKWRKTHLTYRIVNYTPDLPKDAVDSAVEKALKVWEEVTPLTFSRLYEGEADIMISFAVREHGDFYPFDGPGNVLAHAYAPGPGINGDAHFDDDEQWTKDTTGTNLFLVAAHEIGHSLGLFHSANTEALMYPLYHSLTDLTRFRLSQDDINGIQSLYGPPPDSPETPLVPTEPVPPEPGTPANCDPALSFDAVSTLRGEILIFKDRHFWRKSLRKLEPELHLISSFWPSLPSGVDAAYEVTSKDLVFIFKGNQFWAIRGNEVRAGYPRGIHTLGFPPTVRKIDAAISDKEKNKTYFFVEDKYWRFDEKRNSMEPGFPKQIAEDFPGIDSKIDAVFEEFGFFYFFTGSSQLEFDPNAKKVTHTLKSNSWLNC

**Q.** berkeleypenostatin E [compound 5] was tested. Which IC50 did it give?
**A.** The IC50 was 50 µM.
